Data from patent US20250154358A1, “ORGANIC DYE COMPOSITION, AND SPRAY AGENT COMPRISING SAME” (PANASONIC INTELLECTUAL PROPERTY MANAGEMENT CO., LTD., priority 2022, published 2025).

Assays:
Staphylococcus aureus = assay: Color change observation after spraying on bacterial liquid (Staphylococcus aureus); format: cell-based; details: detection of S. aureus; statement in the discussion
E. coli = assay: Color change observation after spraying on bacterial liquid (E. coli); format: cell-based; details: detection of E. coli; statement in the discussion
Experimental: 100 μL of a bacterial liquid (E. coli, […]) was added dropwise onto a slide glass. Then, a sample solution (organic dye composition) of each of Examples and Comparative Examples was placed in a spray bottle (φ39×147 mm, capacity 100 ml), and sprayed (one push) to the bacterial liquid on the slide glass. Thereafter, after leaving for 15 minutes, the following fluorescence observation and color change observation were performed. • Fluorescence observation (visual visibility)
For fluorescence observation, the sprayed part was irradiated with an LED light (530 nm output, color: green), and visual observation was performed through a red filter. The evaluation criteria were as follows. • good: Emission of the solution can be clearly visually recognized • fair: Emission of the solution can be visually recognized but very weak • poor: Emission of the solution cannot be visually recognized • Color change • Color change was visually observed and evaluated according to the following criteria: • good: Color change of the solution can be clearly visually recognized • fair: Color change of the solution can be visually recognized but very weak • poor: Color change of the solution cannot be visually recognized or no color change occurs

CC(C)COC(=O)Oc1ccc2nc3ccc(=O)cc-3oc2c1 [Formula (4)]
color change, compared with the dye represented by Formula (2) (Staphylococcus aureus): more clearly visually recognized
color change, compared with the dye represented by Formula (2) (E. coli): more clearly visually recognized
